Read-outs that look alike come from different tables or passages of the source.
How the values were obtained:
[1] = In vivo pharmacokinetics in male CD1 mice; parameters: species or system mouse; conditions: for CLpu: plasma clearance corrected for the fraction unbound; for clearance: plasma clearance, read-out: CLp (L/h/kg) IV (converted)
Method: The in vivo pharmacokinetic profiles of the compounds were determined using male CD1 mice weighing […] ([Davies and Morris, 1993]; [Liu and Jia, 2007]). The compounds were administered in a single dose orally (0.5 mg/kg) and intravenously (0.5 mg/kg). Stock solutions of the compounds in DMSO were diluted in Tween 80, PEG-400, and D5W (5% dextrose in water) at a ratio of 2:5:20:73 (v/v). The injection volume was 10 ml/kg. The remaining plasma concentration was monitored over time by LC-MS/MS by collecting blood samples (40 μl) at 10, 25, and 50 min and 1, 3, 6, 9, 12, and 24 h after administration of the compound.
(§1) For the biotransformation experiments and analysis of metabolites in microsomes, an Ultra-High-Pressure Liquid Chromatography instrument (UHPLC, Thermo Accela, Waltham, MA) ([Spaggiari et al., 2014]) connected to an automatic sample injector and a 1250 series pump was used. The UHPLC system was connected to a Thermo Fisher (Waltham, MA) LTQ Orbitrap mass spectrometer. For all other analyses, an AB Sciex Triple Quad 5500 coupled to a UHPLC equipped with a UV 1290 diode detector (Agilent Technologies, Santa Clara, CA) and a CTC PAL self-collecting system (LEAP Technologies, Carrboro, NC) was used. Q1 MS positive ion mode (300–500 Da) was used to detect the ions of the parent compounds. The UV detector was operated in spectral mode (250–280 nm). A Hypersil Gold C18 (2.1 mm × 100 mm, 1.9 µm, Thermo Fisher) HPLC column was used. The mobile phases were solvent A (0.1% formic acid in water) and solvent B (0.1% formic acid in ACN). The flow was adjusted to 0.55 ml/min, and the injection volume was adjusted to […]. The gradient started with 1% solvent B for 0.4 min, reached 40% (solvent B) in 2.3 min and 95% (solvent B) in 0.67 min, was maintained for 0.5 min, and returned to the initial condition of 1%. This condition was maintained for 1 min before injection of the next sample. The peak area ratio (peak area of the test compounds/peak area of the control compounds) was converted to the percentage of remaining compound, with the 0 min time point ratio set to 100%. T½ and CLint were calculated from the percentage of remaining compound versus the incubation time. From the resulting function, the slope (k) was determined. The equations T1/2 (min) = ln(2)/k and CLint in vitro (μL/min/mg) = k*1000/0.25 were used to determine T½ and CLint.

[2] = In vitro metabolic stability in human liver microsomes; type: in vitro ADME; conditions: for CLint scaled at 5 µM: human, liver microsomes
Method: (§2) Isolated mouse (BD Gentest, Bedford, MA) and human liver microsomes (XenoTech, Kansas City, KS) ([Plant, 2004]) were added at a final concentration of 0.25 mg/ml to a solution containing 40 mM dibasic potassium phosphate and 10 mM monobasic potassium phosphate. Stock solutions of compounds at 5 mM were prepared in 100% DMSO. A 50:50 quenching solution of acetonitrile (ACN) and methanol (MeOH) was prepared. An NADPH solution was prepared at 10 mM. The preparations containing the microsomes were added to each well of the incubation plate (450 µl), which was then heated to 37°C for 10 min. The compounds were added to the respective wells of the test plate (2 µl). Then, 300 µl of the microsome preparation was added to each well of the test plate. The test plate was heated under gentle rotation for 5 min at 37°C. Next, 90 µl of the mixture contained in the test plate was added to the incubation plate, making a final volume of 540 µl. Samples were collected at the following incubation times: 0, 5, 10, 15, 20, and 30 min. To the 0 min sample plate, quenching solution (180 µl), NADPH (6 µl), and the incubation plate mixture (54 µl) were added to each well. The sample plate was then sealed, homogenized, and stored at 4°C. Then, 54 µl of the NADPH solution was added to the incubation plate, which was homogenized. Before the collection of each sample at the established times, 45 µl of the quenching solution was added to each well of the corresponding sample plates. After reaching the incubation times, 60 µl of the mixture contained in the incubation plate was added to the corresponding sample plates. The sample plates were then sealed and stored at 4°C. After the collection of the last sample (30 min), all sample plates were centrifuged at 3,800 rpm for 30 min. The supernatant from each well was collected and transferred to clean plates for mass spectrometry. Five to 10 µl of each sample was injected into an AB Sciex Triple Quad 5500 LC-MS/MS instrument.
as §1

[3] = In vitro metabolic stability in mouse liver microsomes; type: in vitro ADME; conditions: mouse, liver microsomes
Method: as §2, §1

[4] = Cytotoxicity MTS assay in HFF-1 fibroblasts; type: cell-based; conditions: human HFF-1 fibroblasts
Method: The synthesized compounds were evaluated for their cytotoxicity against HFF-1 cells using the MTS assay (Promega, Madison, WI) ([Barltrop et al., 1991]) as previously described ([Ferreira et al., 2019]). HFF-1 fibroblasts were plated at 2 × 10^3/well in 96-well culture plates in RPMI 1640 without phenol red enriched with 10% FCS and incubated overnight at 37°C and 5% CO2. Next, 7 concentrations (0.1–100 µM) of the compounds were added in 3-fold serial dilutions, each concentration in triplicate, and the plates were incubated for 72 h at 37°C and 5% CO2. Next, 20 µl of MTS was added to each well, and the plates were incubated for an additional 4 h at 37°C and 5% CO2. The absorbance was measured at 490 nm using a spectrophotometer, and the data were transferred to SigmaPlot 10.0 (Systat Software Inc., Erkrath, Germany) to determine the IC50 values. Doxorubicin (Sigma–Aldrich) was used as a positive control, and untreated wells (100% growth) were used as negative controls in all plates. All compounds were tested in two independent assays.

[5] = mouse, plasma, Table 6, IV 0.5 mg/kg, male CD1 mice
[6] = mouse, plasma, Table 6, IV 0.5 mg/kg, male CD1 mice, read-out: AUC (ng*h/ml) IV
[7] = mouse, plasma, Table 6, IV 0.5 mg/kg, male CD1 mice, read-out: T1/2 (h) IV (converted)
[8] = mouse, plasma, Table 6, IV 0.5 mg/kg, male CD1 mice, read-out: V SS (L/kg) IV
[9] = mouse, Table 6, IV 0.5 mg/kg, male CD1 mice
[10] = Table 5, CLint/fu, read-out: CLint_u (L/h/kg) human (converted)
[11] = Table 5, read-out: CLint (L/h/kg) human (converted)
[12] = Table 5, CLint/fu, read-out: CLint_u (L/h/kg) mouse (converted)
[13] = Table 5, read-out: CLint (L/h/kg) mouse (converted)
[14] = Table S5, CLint/fu, read-out: CLint_u (L/h/kg) Human (converted)
[15] = Table S5, CLint/fu, read-out: CLint_u (L/h/kg) Mouse (converted)
[16] = Table S5, read-out: CLint (L/h/kg) Mouse (converted)
[17] = Table S5, read-out: CLint (L/h/kg) Human (converted)
[18] = mouse, plasma, Table 6, PO 0.5 mg/kg, male CD1 mice

| CLint scaled at 5 µM [2, 14] [L/h/kg] | CLint scaled at 5 µM [3, 16] [L/h/kg] | CLint scaled at 5 µM [2, 17] [L/h/kg] | Structure (SMILES) | CLint scaled at 5 µM [3, 15] [L/h/kg] | further results |
| --- | --- | --- | --- | --- | --- |
| – | – | – | O=C(CCc1ccccc1Br)NCCc1nc2ccccc2[nH]1 [Compound 36] | – | CLpu ([1]; Table 6, IV): 3858 mL/min/kg; bioavailability ([1]; mouse, plasma, 0.5 mg/kg, Table 6, oral bioavailability, male CD1 mice): 0%; C0 [1, 5]: 144 ng/mL; AUC [1, 6]: 55 ng·h/mL; half-life [1, 7]: 0.5 h; Vd [1, 8]: 7.2 L/kg; clearance [1, 9]: 9.5 L/h/kg; CLint scaled at 5 µM [2, 10]: 38.2 L/h/kg; CLint scaled at 5 µM [2, 11]: 28.8 L/h/kg; CLint scaled at 5 µM [3, 12]: 935 L/h/kg; CLint scaled at 5 µM [3, 13]: 705 L/h/kg |
| < 1.5 | 8.19 | – | O=C(COc1cccc(NC(=O)CCCO)c1)NCCc1nc2ccccc2[nH]1 [Compound 7] | 8.19 | – |
| 496 | 847 | 235 | O=C(COc1ccccc1)NCCc1nc2ccccc2n1CCOCc1ccccc1 [Compound 21] | 1790 | – |
| < 1.5 | 12.9 | < 1.5 | O=C(COc1ccc2c(C(=O)O)cccc2c1)NCCc1nc2ccccc2[nH]1 [Compound 15] | 12.9 | – |
| 92.4 | 713 | 58.1 | O=C(COc1ccccc1)NCCc1nc2ccccc2n1-c1ccccc1 [Compound 30] | 1130 | – |
| 949 | 305 | 112 | O=C(COc1ccccc1)NCCc1nc2ccccc2n1CCOc1ccccc1Br [Compound 19] | 2580 | – |
| 3.54 | 217 | 3.54 | O=C(COc1cccc(N2C(=O)CCC2=O)c1)NCCc1nc2ccccc2[nH]1 [Compound 6] | 217 | CLint_u (L/h/kg) Human ([2]; Table S5, CLint/fu): 3.54 L/h/kg |
| 3370 | 300 | 136 | O=C(COc1ccccc1Br)NCCc1nc2ccccc2n1CCOc1ccccc1Br [Compound 23] | – | – |
| 3870 | 487 | 123 | Cc1ccccc1OCC(=O)NCCc1nc2ccccc2n1CCOc1ccccc1Br [Compound 22] | – | – |
| – | – | – | N#Cc1ccccc1OCC(=O)NCCc1nc2ccccc2[nH]1 [Compound 31] | – | CLpu ([1]; Table 6, IV): 498 mL/min/kg; C0 [1, 5]: 232 ng/mL; AUC [1, 6]: 67 ng·h/mL; half-life [1, 7]: 0.2 h; Vd [1, 8]: 1.9 L/kg; Cmax [1, 18]: 12.8 ng/mL; Tmax [1, 18]: 18 min; clearance [1, 9]: 4.6 L/h/kg; CLint scaled at 5 µM [2, 10]: 6.6 L/h/kg; CLint scaled at 5 µM [2, 11]: 5.6 L/h/kg; CLint scaled at 5 µM [3, 12]: 87.9 L/h/kg; CLint scaled at 5 µM [3, 13]: 74.6 L/h/kg |
| < 1.51 | 20.8 | < 1.5 | O=C(COc1ccc(N2C(=O)CCC2=O)cc1)NCCc1nc2ccccc2[nH]1 [Compound 4] | 20.9 | – |
| 23 | 235 | 23 | COCCn1c(CCNC(=O)COc2ccccc2)nc2ccccc21 [Compound 29] | 235 | – |

| Structure (SMILES) | CLint scaled at 5 µM [2, 14] [L/h/kg] | CLint scaled at 5 µM [3, 16] [L/h/kg] | CLint scaled at 5 µM [2, 17] [L/h/kg] | CLint scaled at 5 µM [3, 15] [L/h/kg] | further results |
| --- | --- | --- | --- | --- | --- |
| O=C(COc1ccc(NC(=O)CCCO)cc1)NCCc1nc2ccccc2[nH]1 [Compound 5] | 1.53 | 4.43 | 1.5 | 4.51 | IC50 at 72 h [4]: > 100 µM |
| C=CCCn1c(CCNC(=O)COc2ccccc2)nc2ccccc21 [Compound 27] | 70.2 | 650 | 60.4 | 756 | IC50 at 72 h [4]: > 100 µM |
| O=C(COc1ccc2ccc(O)cc2c1)NCCc1nc2ccccc2[nH]1 [Compound 11] | 14.2 | 45.7 | 9.48 | 68.5 | CLpu ([1]; Table S6): 8011 mL/min/kg; clearance ([1]; male, CD1, mouse, 0.5 mg/kg, Table S6, IV, mice): 12.9 L/h/kg; C0 ([1]; male, CD1, mouse, plasma, 0.5 mg/kg, Table S6, IV, mice): 400 ng/mL; AUC ([1]; male, CD1, mouse, plasma, 0.5 mg/kg, Table S6, IV, mice, read-out: AUC (ng*h/mL) IV): 77 ng·h/mL; half-life ([1]; male, CD1, mouse, plasma, 0.5 mg/kg, Table S6, IV, mice, read-out: T1/2(h) IV (converted)): 0.13 h; Vd ([1]; male, CD1, mouse, plasma, 0.5 mg/kg, Table S6, IV, mice, read-out: VSS (L/kg) IV): 1.92 L/kg |
| Nc1cccc(OCC(=O)NCCc2nc3ccccc3[nH]2)c1 [Compound 9] | 11.1 | 22.7 | 11 | 22.8 | – |
| O=C(COc1ccccc1)NCCc1nc2ccccc2n1CCCOc1ccccc1 [Compound 24] | 524 | 501 | 142 | 1850 | IC50 at 72 h [4]: > 30 µM |
| Cn1c(CCNC(=O)COc2ccccc2)nc2ccccc21 [Compound 25] | 4.61 | 122 | 4.57 | 123 | – |
| O=C(COc1ccccc1)NCCc1nc2ccccc2n1Cc1ccccc1 [Compound 26] | 196 | 620 | 120 | 1010 | IC50 at 72 h [4]: > 100 µM |
| COc1ccc2cc(OCC(=O)NCCc3nc4ccccc4[nH]3)ccc2c1 [Compound 12] | 233 | 177 | 25.6 | 1610 | – |

Reference: article PMC8767159, “Multiparameter Optimization of Trypanocidal Cruzain Inhibitors With In Vivo Activity and Favorable Pharmacokinetics” (Frontiers in Pharmacology, 2022)
